The source of these data is patent publication US20240376091A1, “THIADIAZOLEAMIDE DERIVATIVES AND THEIR APPLICATIONS” (ZHEJIANG UNIVERSITY, priority 2021, published 2024).

One data set deals with LNCaP xenograft. Particulars: mouse, in vivo.
A further data set addresses T1, LBP of AR-LBD (Rattus norvegicus, UniProt P15207).
T1 construct: a buffer containing AR-LBD (His-GST) and fluorescence ligand; purchased
T1 sequence (P15207 651-882 limits assumed): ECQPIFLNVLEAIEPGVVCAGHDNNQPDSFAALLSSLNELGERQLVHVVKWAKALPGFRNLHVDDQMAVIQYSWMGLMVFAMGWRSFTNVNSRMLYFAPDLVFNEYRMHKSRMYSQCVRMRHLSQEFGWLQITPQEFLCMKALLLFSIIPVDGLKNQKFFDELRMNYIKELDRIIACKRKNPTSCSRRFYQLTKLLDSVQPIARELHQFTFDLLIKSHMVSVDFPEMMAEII
Briefly: AR competitive ligand binding assay (PolarScreen Androgen Receptor Competitor Assay Kit, fluorescence polarization). Particulars: A-1 at 12.5 μM-200 μM; 4 hours incubation. As to the method:
Detection principles: The binding affinities of compounds to the LBP of AR-LBD were evaluated using PolarScreen™ Androgen Receptor Competitor Assay Kit. […] The addition of a test compound to a microporous plate containing the binary complex would reduce fluorescence polarization values if the compound could target LBP of AR-LBD by competing the fluorescence ligand.
After 4 hours incubation in darkness at room temperature, the fluorescence polarization values were determined using a multifunctional microplate reader.
On the technique in general: Fluorescence polarisation rises when a labelled molecule tumbles more slowly, as on binding a larger partner.

In a further data set the target is T2, FL-AR^WT (Homo sapiens, UniProt P10275).
T2 construct: toward full-length (FL)-AR^WT and FL-AR^V684A; expressed in transfected cells; host or cells: PC3
T2 sequence (P10275 1-920): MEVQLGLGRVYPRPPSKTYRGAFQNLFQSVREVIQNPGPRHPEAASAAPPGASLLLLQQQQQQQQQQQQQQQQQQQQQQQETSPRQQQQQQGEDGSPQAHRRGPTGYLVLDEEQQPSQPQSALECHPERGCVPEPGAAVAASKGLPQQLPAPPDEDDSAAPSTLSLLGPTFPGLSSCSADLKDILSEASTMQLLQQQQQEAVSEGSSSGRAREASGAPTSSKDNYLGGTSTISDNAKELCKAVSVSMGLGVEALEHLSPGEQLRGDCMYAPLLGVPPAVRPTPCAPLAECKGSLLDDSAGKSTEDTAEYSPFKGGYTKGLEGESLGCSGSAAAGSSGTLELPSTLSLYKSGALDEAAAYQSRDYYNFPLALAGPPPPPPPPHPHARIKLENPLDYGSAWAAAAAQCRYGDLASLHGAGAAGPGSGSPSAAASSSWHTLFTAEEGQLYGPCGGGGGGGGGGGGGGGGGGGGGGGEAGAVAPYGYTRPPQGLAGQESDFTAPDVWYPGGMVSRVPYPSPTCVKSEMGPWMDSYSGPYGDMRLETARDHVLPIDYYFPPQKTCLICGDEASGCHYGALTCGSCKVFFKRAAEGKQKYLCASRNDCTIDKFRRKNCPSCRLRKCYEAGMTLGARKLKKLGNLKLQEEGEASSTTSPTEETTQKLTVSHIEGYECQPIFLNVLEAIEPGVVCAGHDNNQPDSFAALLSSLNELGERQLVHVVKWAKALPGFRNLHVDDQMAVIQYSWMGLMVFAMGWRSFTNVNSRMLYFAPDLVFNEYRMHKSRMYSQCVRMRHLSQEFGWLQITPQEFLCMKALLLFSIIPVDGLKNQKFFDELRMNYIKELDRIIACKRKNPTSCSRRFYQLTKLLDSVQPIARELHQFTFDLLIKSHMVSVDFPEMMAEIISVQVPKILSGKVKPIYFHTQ
Briefly: Luciferase reporter assay in PC3 cells, wild type AR. It is filed as cell-based. The settings on record: read-out: IC50 toward FL-AR^WT. How it is done: Detection principles: A reporter system for detecting the activities of firefly luciferase. To quantitatively detect the interaction between transcription factors and target promoters, the fluorescent intensities are detected to quantitatively evaluate the activities of firefly luciferase.
Methods: PC3 cells (no endogenous AR) treated with DMEM media supplemented with 5% CSS for 48 hours. Then, the PC3 cells (1.2×10^4/well) were seeded into 96-well plates. After 16 hours, the PC3 cells were transfected with 20 ng/well plasmid and incubated for 20 min at room temperature. After 1 day incubation, the media in the wells was replaced, followed by the addition of various concentrations of compounds. After 48 hours, the culture medium was discarded and the cells were washed with 100 μL PBS, followed by addition of 30 μL 1×PLB and the 96-well plates was shaken on a shaker for 20 min to ensure complete lysis of the cells. Then, the cell lysis supernatant (20 μL/well) was transferred to a white opaque 96-well, and addition of 30 μL Luciferase Assay Reagent II to each well. Then, the fluorescent intensities of firefly luciferase were evaluated. Afterwards, 30 μL Stop&Glo Reagant was added to the wells, and the fluorescent intensities of […] evaluated.
For orientation: In a reporter assay the amount or activity of a reporter protein is the signal.

The next data set has as its target T3, AR-LBD protein (Homo sapiens, UniProt P10275).
T3 construct: The biotinylated AR-LBD protein was dissolved in the buffer
T3 sequence (P10275 669-900 limits assumed): T1 sequence (P15207 651-882 limits assumed)
The data set is described as follows: Biolayer interferometry (BLI) direct interaction. Format: binding. The settings on record: A-1 2.06-500 μM, biotinylated AR-LBD. How it is done:
Detection principles: The BLI technique can detect the interactions by monitoring the change of the interference spectrum in the sensor surface. BLI can quantitatively determine the binding and dissociation processes of a ligand to the target loaded sensor, by analyzing changes in the interference spectrum. Therefore, the direct interaction between ligand and target protein can be quantitatively detected.
Methods: The biotinylated AR-LBD protein was dissolved in the buffer of phosphate-buffered saline with 1% dimethyl sulfoxide. 200 μL of AR-LBD protein in the buffer was loaded onto sensors and equilibrated for 300 seconds. The kinetics of association between AR-LBD and A-1 were determined by soaking the AR-LBD loaded sensors into wells containing different concentrations of A-1 for 300 seconds, followed by soaking the sensors in the buffer for 180 seconds allow for dissociation. Finally, the ForteBio data analysis software was applied to calculate the kinetic binding constants (Ka, Kd, KD).
Background: Biolayer interferometry detects binding as a change in optical thickness at a sensor tip.

Each structure is given as a SMILES string.

Procedure for LNCaP xenograft: Methods: LNCaP cells were injected to the Male CB17 SCID mice (6-8 weeks old). Once tumor size reached target value, the mice were randomized into three groups with 6-8 mice per group. […] The mice weight and tumor volume were periodically recorded. Finally, the tumors were harvested.

What is called IC50 is the midpoint of a concentration-inhibition curve. As usually defined, the Kd is a measure of binding affinity in units of concentration. Low values mean a tighter complex, high ones a looser complex. As for `CC(=O)Cc1nsc(NC(=O)c2cc(-c3cccc(C(F)(F)F)c3)oc2C)n1` [Compound A-1, 2-Methyl-N-(3-(2-oxopropyl)-1,2,4-thiadiazol-5-yl)-5-(3-(trifluoromethyl)phenyl)furan-3-carboxamide], the mortality entry in the data set with LNCaP xenograft was “no mortality”. Moreover, the “binding to the AR LBP” value at LBP of AR-LBD is “did not bind to the AR LBP”. At FL-AR^WT, the concentration for half-maximal inhibition (IC50) amounted to 1.84 µM. Moreover, binding at AR-LBD protein was characterised by a dissociation constant (Kd) of 143 µM.
